Laboratory results taken from patent US8101774B2, “Ester derivatives and medicinal use thereof” (Japan Tobacco Inc., priority 2004, dated 2012).

target: T1, Microsomal triglyceride transfer protein (MTP) from human small intestine microsome (Homo sapiens, UniProt P55157); test: Inhibition test of interliposomal triglyceride (TG) transfer activity by MTP; assay type: biochemical; conditions: purified MTP from human small intestine microsome, 37° C., 1.5 hours
T1 construct: Human small intestine microsome was dialyzed against 10 mM phosphate buffer; tissue Tissue Transforming Technologies, Inc; host or cells: human small intestine microsome
Protocol: Microsomal triglyceride transfer protein (MTP) from human small intestine microsome (manufactured by Tissue Transforming Technologies, Inc.) was purified in such a way described below. Human small intestine microsome was dialyzed against 10 mM phosphate buffer (300 mL, pH 6.8) twice for about 2 hours and once for further not less than 12 hours, at about 4° C. After dialysis, the mixture was centrifuged at 4° C. and 15,000×g for 5 minutes and then the supernatant was recovered. The previously recovered supernatant was purified by column chromatography on diethylaminoethyl (DEAE) Sepharose using FPLC (Fast Performance Liquid Chromatography) system, and the purified MTP was used for the test as described below.
Small unilamellar-vesicle (SUV) liposome (hereinafter described as donor, containing 0.25% (mol/mol) triolein and 5% (mol/mol) cardiolipin) constituted by triolein labeled with ^14C and non-labeled SUV liposome (hereinafter described as acceptor, containing […] triolein) were prepared in such a way described below.
Firstly, in order to prepare the donor, there were volatilized under a stream of nitrogen gas a phosphatidylcholine solution containing phosphatidylcholine labeled with ^3H, a cardiolipin solution, and a triolein solution containing triolein labeled with ^14C (each solution had been already dissolved in an appropriate organic solvent), or in order to prepare the acceptor, there were volatilized under nitrogen flow a phosphatidylcholine solution containing phosphatidylcholine labeled with ^3H and a cardiolipin solution (each solution had been already dissolved in an appropriate organic solvent). An appropriate amount of a reaction buffer (15 mM Tris-HCl buffer containing 1 mM EDTA.Na2, 40 mM NaCl, and 0.5% (w/v) bovine serum albumin, pH 7.4) was added thereto to be emulsified. The emulsions were treated with ultrasonication under ice-cooling and centrifuged at 4° C. and 159,000×g for 2 hours. Each of the resulting supernatant was used for donor or acceptor.
Each radioactivity in the acceptor and the donor was measured by liquid scintillation counter, and a mixed solution of the acceptor and the donor was prepared with a reaction buffer so as to be a donor-derived radioactivity of 16,000 dpm/400 μL and a acceptor-derived radioactivity of 4,000 dpm/[…]. 400 μL of the mixed solution of the donor and the acceptor, 45 μL of the reaction buffer, 50 μL of MTP (20 μg/mL), and 5 μL of a sample dissolved in DMSO (dimethyl sulfoxide) or 5 μL of DMSO was mixed (total amount: 500 μL). The mixture was incubated at 37° C. for 1.5 hours. After completion of the incubation, 1.25 mL of a suspension of DEAE cellulose (66.7% (v/v)) in 15 mM Tris-HCl buffer (pH 7.4) containing 1 mM EDTA.Na2 was added to the above solution. The mixture was centrifuged to separate the donor (adsorbed on the DEAE cellulose to precipitate) and the acceptor (the supernatant). The radioactivity in the acceptor was measured by liquid scintillation counter. The value obtained by subtracting the radioactivity in a blank group from the radioactivity in the acceptor of a DMSO group was determined as MTP-mediated TG transfer activity, and it was compared with the value obtained by subtracting the radioactivity in the blank group from the radioactivity in a sample group. Here, the blank was prepared by adding 10 mM phosphate buffer (pH 6.8) containing 250 mM NaCl in place of MTP. Inhibition rate (%) was calculated from values obtained according to the following equation. Inhibition rate(%)=(1 minus((radioactivity of sample group minus radioactivity of blank group)/(radioactivity of DMSO group minus radioactivity of blank group)))×100.
50% Inhibition rate (IC50) was determined on the basis of the above equation.

T1 sequence (P55157 19-894): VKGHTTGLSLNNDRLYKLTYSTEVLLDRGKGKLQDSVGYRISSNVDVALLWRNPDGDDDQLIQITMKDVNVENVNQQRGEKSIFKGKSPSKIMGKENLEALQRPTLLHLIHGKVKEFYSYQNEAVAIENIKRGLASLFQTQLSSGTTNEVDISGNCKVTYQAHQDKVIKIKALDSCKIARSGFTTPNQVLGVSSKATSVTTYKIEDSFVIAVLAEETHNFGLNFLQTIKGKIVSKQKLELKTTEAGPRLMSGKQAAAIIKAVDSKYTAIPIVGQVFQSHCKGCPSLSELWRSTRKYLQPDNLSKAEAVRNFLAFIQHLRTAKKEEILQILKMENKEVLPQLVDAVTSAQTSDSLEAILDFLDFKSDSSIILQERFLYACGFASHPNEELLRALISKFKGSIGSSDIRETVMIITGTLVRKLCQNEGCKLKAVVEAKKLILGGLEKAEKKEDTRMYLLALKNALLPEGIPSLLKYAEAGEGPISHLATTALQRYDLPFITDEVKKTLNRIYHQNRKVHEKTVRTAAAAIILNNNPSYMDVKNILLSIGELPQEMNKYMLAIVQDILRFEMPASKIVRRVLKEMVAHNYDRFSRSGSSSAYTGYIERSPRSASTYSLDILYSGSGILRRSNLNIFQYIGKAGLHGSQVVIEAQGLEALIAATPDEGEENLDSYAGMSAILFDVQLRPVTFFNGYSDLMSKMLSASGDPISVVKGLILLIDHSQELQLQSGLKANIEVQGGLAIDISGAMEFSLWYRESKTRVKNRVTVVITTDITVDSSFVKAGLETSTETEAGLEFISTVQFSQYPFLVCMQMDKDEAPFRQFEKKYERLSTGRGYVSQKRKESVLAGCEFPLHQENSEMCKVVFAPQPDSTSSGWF
T1 sequence (P07237 18-508 partner): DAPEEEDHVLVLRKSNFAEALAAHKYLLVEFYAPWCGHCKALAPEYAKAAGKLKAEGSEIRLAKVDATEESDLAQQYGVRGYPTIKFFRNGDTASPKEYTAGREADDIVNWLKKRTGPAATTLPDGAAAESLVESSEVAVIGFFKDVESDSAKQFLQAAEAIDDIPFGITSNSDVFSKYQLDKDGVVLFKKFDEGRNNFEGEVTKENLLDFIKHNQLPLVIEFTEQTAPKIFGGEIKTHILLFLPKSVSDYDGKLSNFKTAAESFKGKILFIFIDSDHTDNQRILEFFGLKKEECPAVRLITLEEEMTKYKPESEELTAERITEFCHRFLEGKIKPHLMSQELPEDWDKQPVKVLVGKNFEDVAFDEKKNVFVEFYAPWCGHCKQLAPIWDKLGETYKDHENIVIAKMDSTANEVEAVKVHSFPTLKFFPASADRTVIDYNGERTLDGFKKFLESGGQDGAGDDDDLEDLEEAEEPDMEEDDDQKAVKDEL

**Q.** Which IC50 does the source give for `CCOC(=O)c1cc(C)c(OC(=O)CCCc2ccc(NC(=O)c3ccc(C)nc3-c3ccc(C(F)(F)F)cc3)c(C(=O)N(C)C)c2)c(Cl)c1` [Compound 1-112, 3-chloro-4-[4-(3-dimethylcarbamoyl-4-{[6-methyl-2-(4-trifluoromethylphenyl)pyridine-3-carbonyl]amino}phenyl)butyryloxy]-5-methylbenzoic acid ethyl ester] here?
**A.** The IC50 was less than 10 nM.

**Q.** With `Cc1ccc(C(=O)Nc2ccc(CCCC(=O)Oc3ccc(C(=O)OCc4cccnc4)cc3)cc2C(=O)N(C)C)c(-c2ccc(C(F)(F)F)cc2)n1` [Compound 1-94, 4-[4-(3-dimethylcarbamoyl-4-{[6-methyl-2-(4-trifluoromethylphenyl)pyridine-3-carbonyl]amino}phenyl)butyryloxy]benzoic acid pyridin-3-ylmethyl ester] as the compound, how does the IC50 read?
**A.** Its IC50 is less than 10 nM.

**Q.** Which IC50 does the source give for `COC(=O)c1cc(OC)c(OC(=O)CCCc2ccc(NC(=O)c3ccc(C)nc3-c3ccc(C(F)(F)F)cc3)c(C(=O)N(C)C)c2)c(C(F)(F)F)c1` [Compound 1-47, 4-[4-(3-dimethylcarbamoyl-4-{[6-methyl-2-(4-trifluoromethylphenyl)pyridine-3-carbonyl]amino}phenyl)butyryloxy]-3-methoxy-5-trifluoromethylbenzoic acid methyl ester] here?
**A.** The IC50 was less than 10 nM.

**Q.** For `CN(C)C(=O)c1cc(CCC(=O)Oc2ccccc2)ccc1NC(=O)c1ccccc1-c1ccc(C(F)(F)F)cc1` [Compound 1-1, 3-{3-dimethylcarbamoyl-4-[(4′-trifluoromethylbiphenyl-2-carbonyl)amino]phenyl}propionic acid phenyl ester], which IC50 is on record?
**A.** The IC50 was 10 to 100 nM.

**Q.** Which IC50 does the source give for `CC(C)OC(=O)c1ccc(OC(=O)CCCc2ccc(NC(=O)c3cccnc3-c3ccc(C(F)(F)F)cc3)c(C(=O)N(C)C)c2)cc1` [Compound 1-31, 4-[4-(3-dimethylcarbamoyl-4-{[2-(4-trifluoromethylphenyl)pyridine-3-carbonyl]amino}phenyl)butyryloxy]benzoic acid isopropyl ester] here?
**A.** Its IC50 is 10 to 100 nM.

**Q.** With `CC(C)OC(=O)c1ccc(OC(=O)CCCc2ccc(NC(=O)c3ccncc3-c3ccc(C(F)(F)F)cc3)c(C(=O)N(C)C)c2)cc1` [Compound 1-29, 4-[4-(3-dimethylcarbamoyl-4-{[3-(4-trifluoromethylphenyl)pyridine-4-carbonyl]amino}phenyl)butyryloxy]benzoic acid isopropyl ester] as the compound, how does the IC50 read?
**A.** The IC50 was less than 10 nM.

**Q.** How did the IC50 turn out when `COC(=O)c1ccc(OC(=O)CCCc2ccc(NC(=O)c3ccccc3-c3ccc(C(F)(F)F)cc3)c(C(=O)N(C)C)c2)c(OC)c1` [Compound 1-12, 4-(4-{3-dimethylcarbamoyl-4-[(4′-trifluoromethylbiphenyl-2-carbonyl)amino]phenyl}butyryloxy)-3-methoxybenzoic acid methyl ester] was run?
**A.** Its IC50 is less than 10 nM.

**Q.** Which IC50 does the source give for `COc1cc(C(=O)OC(C)C)cc(F)c1OC(=O)CCCc1ccc(NC(=O)c2ccc(C)nc2-c2ccc(C(F)(F)F)cc2)c(C(=O)N(C)C)c1` [Compound 1-38, 4-[4-(3-dimethylcarbamoyl-4-{[6-methyl-2-(4-trifluoromethylphenyl)pyridine-3-carbonyl]amino}phenyl)butyryloxy]-3-fluoro-5-methoxybenzoic acid isopropyl ester] here?
**A.** The IC50 was 10 to 100 nM.

**Q.** With `COC(=O)c1cc(Cl)c(OC(=O)CCCc2ccc(NC(=O)c3ccc(C)nc3-c3ccc(C(F)(F)F)cc3)c(C(=O)N(C)C)c2)c(OC)c1` [Compound 1-36, 3-chloro-4-[4-(3-dimethylcarbamoyl-4-{[6-methyl-2-(4-trifluoromethylphenyl)pyridine-3-carbonyl]amino}phenyl)butyryloxy]-5-methoxybenzoic acid methyl ester] as the compound, how does the IC50 read?
**A.** Its IC50 is less than 10 nM.

**Q.** With `COC(=O)c1cc(Cl)c(OC(=O)CCCc2ccc(NC(=O)c3ccc(C)nc3-c3ccc(C(F)(F)F)cc3)c(C(=O)N(C)C)c2)c(C(C)C)c1` [Compound 1-74, 3-chloro-4-[4-(3-dimethylcarbamoyl-4-{[6-methyl-2-(4-trifluoromethylphenyl)pyridine-3-carbonyl]amino}phenyl)butyryloxy]-5-isopropylbenzoic acid methyl ester] as the compound, how does the IC50 read?
**A.** The IC50 was less than 10 nM.

**Q.** Which IC50 does the source give for `COc1cc(C(=O)OCC(=O)N(C)C)cc(Cl)c1OC(=O)CCCc1ccc(NC(=O)c2ccc(C)nc2-c2ccc(C(F)(F)F)cc2)c(C(=O)N(C)C)c1` [Compound 1-113, 3-chloro-4-[4-(3-dimethylcarbamoyl-4-{[6-methyl-2-(4-trifluoromethylphenyl)pyridine-3-carbonyl]amino}phenyl)butyryloxy]-5-methoxybenzoic acid dimethylcarbamoylmethyl ester] here?
**A.** Its IC50 is less than 10 nM.

**Q.** `CN(C)C(=O)c1cc(CCCC(=O)Oc2ccc(C(=O)OCCN3CCCC3=O)cc2)ccc1NC(=O)c1ccccc1-c1ccc(C(F)(F)F)cc1` [Compound 1-91, 4-[4-(3-dimethylcarbamoyl-4-{(4′-trifluoromethylbiphenyl-2-carbonyl)amino}phenyl)butyryloxy]benzoic acid 2-(2-oxopyrrolidin-1-yl)ethyl ester] was tested. Which IC50 did it give?
**A.** Its IC50 is less than 10 nM.

**Q.** How did the IC50 turn out when `CCOC(=O)c1cc(C)c(OC(=O)CCCc2ccc(NC(=O)c3ccc(C)nc3-c3ccc(C(F)(F)F)cc3)c(C(=O)N(C)C)c2)c(C(=O)OC)c1` [Compound 1-52, 4-[4-(3-dimethylcarbamoyl-4-{[6-methyl-2-(4-trifluoromethylphenyl)pyridine-3-carbonyl]amino}phenyl)butyryloxy]-5-methylisophthalic acid 1-ethyl ester 3-methyl ester] was run?
**A.** Its IC50 is less than 10 nM.

**Q.** With `COc1cc(C(=O)OC(C)C)cc(OC)c1OC(=O)CCCc1ccc(NC(=O)c2ccc(C)nc2-c2ccc(C(F)(F)F)cc2)c(C(=O)N(C)C)c1` [Compound 1-44, 4-[4-(3-dimethylcarbamoyl-4-{[6-methyl-2-(4-trifluoromethylphenyl)pyridine-3-carbonyl]amino}phenyl)butyryloxy]-3,5-dimethoxybenzoic acid isopropyl ester] as the compound, how does the IC50 read?
**A.** The IC50 was less than 10 nM.

**Q.** Which IC50 does the source give for `COc1cccc(COC(=O)c2ccc(OC(=O)CCCc3ccc(NC(=O)c4ccccc4-c4ccc(C(F)(F)F)cc4)c(C(=O)N(C)C)c3)cc2)c1` [Compound 1-97, 4-[4-(3-dimethylcarbamoyl-4-{(4′-trifluoromethylbiphenyl-2-carbonyl)amino}phenyl)butyryloxy]benzoic acid 3-methoxybenzyl ester] here?
**A.** The IC50 was less than 10 nM.

**Q.** How did the IC50 turn out when `COC(=O)c1cc(Br)c(OC(=O)CCCc2ccc(NC(=O)c3ccc(C)nc3-c3ccc(C(F)(F)F)cc3)c(C(=O)N(C)C)c2)c(OC)c1` [Compound 1-50, 3-bromo-4-[4-(3-dimethylcarbamoyl-4-{[6-methyl-2-(4-trifluoromethylphenyl)pyridine-3-carbonyl]amino}phenyl)butyryloxy]-5-methoxybenzoic acid methyl ester] was run?
**A.** The IC50 was less than 10 nM.

**Q.** With `COC(=O)c1ccc(-c2nc(C)ccc2C(=O)Nc2ccc(CCCC(=O)Oc3c(C)cc(C(=O)OC)cc3C(=O)OC)cc2C(=O)N(C)C)cc1` [Compound 4-2, 4-[4-(3-dimethylcarbamoyl-4-{[2-(4-methoxycarbonylphenyl)-6-methylpyridine-3-carbonyl]amino}phenyl)butyryloxy]-5-methylisophthalic acid dimethyl ester] as the compound, how does the IC50 read?
**A.** Its IC50 is less than 10 nM.

**Q.** For `COC(=O)c1cc(C)c(OC(=O)CCCc2ccc(NC(=O)c3ccc(C)nc3-c3ccc(C(F)(F)F)cc3)c(C(=O)N(C)C)c2)c(F)c1` [Compound 1-41, 4-[4-(3-dimethylcarbamoyl-4-{[6-methyl-2-(4-trifluoromethylphenyl)pyridine-3-carbonyl]amino}phenyl)butyryloxy]-3-fluoro-5-methylbenzoic acid methyl ester], which IC50 is on record?
**A.** The IC50 was less than 10 nM.

**Q.** `CN(C)C(=O)c1cc(CCCC(=O)Oc2ccc(C(=O)OCc3cccnc3)cc2)ccc1NC(=O)c1ccccc1-c1ccc(C(F)(F)F)cc1` [Compound 1-83, 4-[4-(3-dimethylcarbamoyl-4-{(4′-trifluoromethylbiphenyl-2-carbonyl)amino}phenyl)butyryloxy]benzoic acid pyridin-3-ylmethyl ester] was tested. Which IC50 did it give?
**A.** Its IC50 is less than 10 nM.
